Test results reported in ChEMBL document CHEMBL3232909, “Arylamino bisphosphonates: potent and selective inhibitors of the tumor-associated carbonic anhydrase XII” (Bioorg Med Chem Lett, 2014).

Assays:
Carbonic anhydrase 14 = Carbonic anhydrase 14 (Homo sapiens, UniProt Q9ULX7)
Description: Inhibition of human recombinant carbonic anhydrase 14 preincubated for 15 mins by stopped flow CO2 hydration method

Carbonic anhydrase 2 = Carbonic anhydrase 2 (Homo sapiens, UniProt P00918)
Description: Inhibition of human recombinant carbonic anhydrase 2 preincubated for 15 mins by stopped flow CO2 hydration method

Carbonic anhydrase 12 = Carbonic anhydrase 12 (Homo sapiens, UniProt O43570)
Description: Inhibition of human recombinant carbonic anhydrase 12 preincubated for 15 mins by stopped flow CO2 hydration method

Carbonic anhydrase 9 = Carbonic anhydrase 9 (Homo sapiens, UniProt Q16790)
Carbonic anhydrase 1 = Carbonic anhydrase 1 (Homo sapiens, UniProt P00915)
Carbonic anhydrase 1, sequence (P00915 whole entry): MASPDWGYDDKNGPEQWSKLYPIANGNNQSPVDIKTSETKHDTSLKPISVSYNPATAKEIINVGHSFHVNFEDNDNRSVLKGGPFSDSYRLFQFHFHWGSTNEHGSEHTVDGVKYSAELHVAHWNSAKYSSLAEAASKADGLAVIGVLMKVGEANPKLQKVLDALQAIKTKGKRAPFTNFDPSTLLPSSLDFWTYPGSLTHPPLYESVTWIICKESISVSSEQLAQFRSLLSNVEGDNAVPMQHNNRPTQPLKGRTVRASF
Description: Inhibition of human recombinant carbonic anhydrase 1 preincubated for 15 mins by stopped flow CO2 hydration method

Carbonic anhydrase 12, sequence (O43570 whole entry): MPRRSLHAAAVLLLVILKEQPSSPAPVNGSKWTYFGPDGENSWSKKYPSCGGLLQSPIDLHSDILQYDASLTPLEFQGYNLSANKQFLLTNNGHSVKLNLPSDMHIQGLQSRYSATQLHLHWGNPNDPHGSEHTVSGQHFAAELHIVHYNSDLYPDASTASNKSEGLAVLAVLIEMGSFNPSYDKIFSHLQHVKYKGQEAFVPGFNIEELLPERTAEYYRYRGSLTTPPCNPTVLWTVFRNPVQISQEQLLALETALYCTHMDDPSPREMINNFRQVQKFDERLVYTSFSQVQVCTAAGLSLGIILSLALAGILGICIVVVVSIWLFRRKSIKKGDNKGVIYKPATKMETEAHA
Carbonic anhydrase 14, sequence (Q9ULX7 whole entry): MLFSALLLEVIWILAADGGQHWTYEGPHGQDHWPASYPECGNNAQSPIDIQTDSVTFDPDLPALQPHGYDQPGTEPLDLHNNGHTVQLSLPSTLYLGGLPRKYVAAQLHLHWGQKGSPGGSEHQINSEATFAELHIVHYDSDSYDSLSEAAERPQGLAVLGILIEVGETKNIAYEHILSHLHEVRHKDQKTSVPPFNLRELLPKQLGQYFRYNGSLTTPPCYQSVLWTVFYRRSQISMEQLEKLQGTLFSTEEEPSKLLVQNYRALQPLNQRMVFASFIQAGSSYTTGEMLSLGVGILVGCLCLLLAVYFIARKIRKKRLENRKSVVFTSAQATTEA

Row | Structure (SMILES) | IC50 (Carbonic anhydrase 14) | IC50 (Carbonic anhydrase 2) | IC50 (Carbonic anhydrase 12) | IC50 (Carbonic anhydrase 9) | IC50 (Carbonic anhydrase 1)
1 | O=P(O)(O)C(Nc1ccc(Cl)cc1Cl)P(=O)(O)O [2,4-DICHLOROPHENYLAMINOMETHYLENEBISPHOSPHONIC ACID] | 7.46 µM | > 10 µM | > 10 µM | > 10 µM | 7.14 µM
2 | O=P(O)(O)C(Nc1cccc(-c2ccccc2)c1)P(=O)(O)O | 0.309 µM | 9.37 µM | > 10 µM | 7.63 µM | > 10 µM
3 | O=[N+]([O-])c1ccc(NC(P(=O)(O)O)P(=O)(O)O)cc1 | > 10 µM | > 10 µM | 0.419 µM | > 10 µM | 7.98 µM
4 | O=P(O)(O)C(Nc1cccc2ccccc12)P(=O)(O)O | 0.319 µM | 9.09 µM | 6.92 µM | > 10 µM | > 10 µM
5 | O=P(O)(O)C(Nc1ccc(F)cc1)P(=O)(O)O | > 10 µM | > 10 µM | 0.269 µM | > 10 µM | > 10 µM
6 | O=P(O)(O)C(Nc1ccc(Oc2ccc(Br)cc2)cc1)P(=O)(O)O | 6.12 µM | 7.47 µM | > 10 µM | 8.17 µM | > 10 µM
7 | Cc1ccc(NC(P(=O)(O)O)P(=O)(O)O)cc1 [(P-TOLYLAMINO)METHYLENEDIPHOSPHONIC ACID] | > 10 µM | > 10 µM | 0.35 µM | > 10 µM | 5.93 µM
8 | O=P(O)(O)C(Nc1cccc(F)c1)P(=O)(O)O | 0.082 µM | > 10 µM | 8.69 µM | 8.23 µM | > 10 µM
9 | O=P(O)(O)C(Nc1ccc(Oc2ccccc2)cc1)P(=O)(O)O | 5.5 µM | > 10 µM | > 10 µM | 8.21 µM | > 10 µM
10 | O=P(O)(O)C(Nc1ccc(Cl)c(Cl)c1)P(=O)(O)O [3,4-DICHLOROPHENYLAMINOMETHYLENEBISPHOSPHONIC ACID] | 7.84 µM | > 10 µM | > 10 µM | > 10 µM | > 10 µM
11 | O=P(O)(O)C(Nc1ccccc1)P(=O)(O)O [(PHENYLAMINO)METHYLENEDIPHOSPHONIC ACID] | > 10 µM | > 10 µM | 0.437 µM | 8.92 µM | > 10 µM
12 | O=P(O)(O)C(Nc1cccc(Br)c1)P(=O)(O)O | 0.911 µM | > 10 µM | > 10 µM | > 10 µM | 8.29 µM
13 | O=P(O)(O)C(Nc1ccc(O)cc1)P(=O)(O)O | > 10 µM | 8.2 µM | 0.078 µM | > 10 µM | 4.57 µM
14 | O=P(O)(O)C(Nc1ccc(Br)cc1)P(=O)(O)O | > 10 µM | > 10 µM | 0.239 µM | > 10 µM | > 10 µM
15 | O=P(O)(O)C(Nc1ccc(C(F)(F)F)cc1)P(=O)(O)O | > 10 µM | > 10 µM | 0.089 µM | > 10 µM | 6.08 µM
16 | O=P(O)(O)C(Nc1cccc(C(F)(F)F)c1)P(=O)(O)O | > 10 µM | > 10 µM | 0.092 µM | > 10 µM | 5.83 µM
17 | O=P(O)(O)C(O)(Cn1ccnc1)P(=O)(O)O [ZOLEDRONIC ACID] | 0.092 µM | 0.062 µM | 0.316 µM | 5.32 µM | > 10 µM
18 | O=[N+]([O-])c1cccc(NC(P(=O)(O)O)P(=O)(O)O)c1 [(3-NITROPHENYLAMINO)METHYLENEDIPHOSPHONIC ACID] | > 10 µM | > 10 µM | 0.088 µM | > 10 µM | 0.814 µM
19 | O=P(O)(O)C(Nc1ccc(Oc2ccc(Cl)cc2)cc1)P(=O)(O)O | 4.42 µM | 9.37 µM | > 10 µM | 8.23 µM | > 10 µM
20 | O=[N+]([O-])c1cc(NC(P(=O)(O)O)P(=O)(O)O)ccc1F | 8.81 µM | > 10 µM | > 10 µM | > 10 µM | 5.53 µM
21 | O=P(O)(O)C(Nc1ccc(-c2ccccc2)cc1)P(=O)(O)O | 8.21 µM | > 10 µM | > 10 µM | > 10 µM | > 10 µM
